Assay results published in patent publication US20120014956A1, “METHODS AND COMPOSITIONS FOR PREDICTING RESPONSIVENESS TO TREATMENT WITH TNF-ALPHA INHIBITOR” (priority 2010, published 2012).

Key:
patients with early RA [1] = assay: OPTIMA genetic substudy: ACR20/50/70 response at Week 26; type: in vivo, human; details: Week 26
Text: (§1) The objective of the study was to prospectively analyze the association of 3 genetic risk factors (HLA-DRB1 shared epitope (SE), FcγRIIb, and IL-4R) for severe RA with clinical disease activity after 26 weeks of combination therapy with adalimumab (ADA) and methotrexate (MTX) or MTX monotherapy in a substudy of OPTIMA (A Multicentre, Randomized, Double Period, Double-Blind Study to Determine the Optimal Protocol for Treatment Initiation With Methotrexate and Adalimumab Combination Therapy in Patients With Early Rheumatoid Arthritis).
(§2) OPTIMA is an ongoing 78-week study with 26- and 52-week periods. Eligible patients had RA<1 year (1987-revised ACR classification), 28-joint Disease Activity Score (DAS28)>3.2, ≧6 swollen joints […], and ≧8 tender joints (SSJC66≧8). Patients had elevated erythrocyte sedimentation rate (ESR)≧28 mm/h or C-reactive protein (CRP)≧1.5 mg/dL and ≧1 of the following: >1 erosion, rheumatoid-factor positive (RF+), or anti-cyclic citrullinated peptide antibody positive (anti-CCP+). Exclusion criteria included prior exposure to systemic anti-TNF therapies, treatment with MTX or >2 disease-modifying anti-rheumatic drugs (DMARDs), other acute inflammatory joint diseases, or steroidal or surgical treatment within 4 weeks or 2 months, respectively.
(§3) In Period 2, those combination therapy responders, e.g., meeting DAS28 low disease activity (LDA) criteria (DAS28<3.2), were re-randomized 1:1 to remain on ADA+MTX or to “step down” to PBO+MTX for Weeks 26-78. In the initial PBO+MTX monotherapy group, subjects who achieved DAS28 LDA after Period 1 remained blinded on PBO+MTX for Period 2. […] Genetic data were associated with Week-26 clinical response.
(§4) For clinical assessment, the percentage of subjects achieving a 20%, 50%, and 70% improvement from baseline ACR scores was determined after Week 26 using a non-responder imputation approach. DAS28(CRP)^1 scores were evaluated at Week 26. The proportion of subjects achieving LDA (DAS28<3.2) and remission criteria (DAS28<2.6) was determined using a non-responder imputation approach.
(§5) For statistical analyses, Allele distribution between treatment groups was evaluated using the chi-square test, or Fisher's exact test in cases where data were sparse. The chi-square test was used to compare the proportion of subject achieving ACR20/50/70 and DAS28 LDA (<3.2) or remission (<2.6) within and between treatment groups.
(§6) MTX-naïve patients were randomized 1:1 to ADA (40 mg eow)+MTX (titrated to 20 mg/wk by Week 8) or placebo (PBO)+MTX for the first 26 weeks.
(§7) The percentage of subjects achieving a 50% improvement in the ACR score from baseline was determined at Week 26 using a non-responder imputation approach. The percentage of subjects achieving DAS28(CRP) remission (DAS28<2.6) was determined at Week 26 using a non-responder imputation approach.
(§8) Allele distribution between treatment groups was evaluated using the chi-square test, or Fisher's exact test in cases where data were sparse. Multivariate logistic regression was used to evaluate the effect of treatment, individual alleles, the interaction between treatment and genetic components, and baseline demographics and disease characteristics on clinical responses at 26 weeks.
(§9) MTX-naïve pts ≧18 years old with RA<1 year and active disease (DAS28>3.2, ESR≧28 mm/h or CRP≧1.5 mg/dL), and either >1 erosions, RF+, or anti-CCP+ were randomized to ADA+MTX (N=515) or PBO+MTX (N=517) for 26 wks. This analysis presents clinical outcomes at 26 weeks by HLA-DRB1 SE copy number (0×, 1×, or 2×), IL-4R I50V (AA, AG, or GG), and FcγRIIb I232T (TT, TC, CC) alleles. Non-responder imputation was used to calculate the percent of patients achieving ACR20/50/70 and DAS28 low disease activity (LDA, DAS28<3.2) and remission (DAS28<2.6). Multiple logistic regression was used to assess the influence of potential confounding baseline variables. […]

patients with early RA [2] = assay: OPTIMA genetic substudy: DAS28 low disease activity (<3.2) and remission (<2.6) at Week 26; type: in vivo, human
Text: as §1, §2, §3, §4, §5, §6, §7, §8, §9

CN(Cc1cnc2nc(N)nc(N)c2n1)c1ccc(C(=O)N[C@@H](CCC(=O)O)C(=O)O)cc1 [PBO + MTX, methotrexate]
ACR20 response, n/N subjects (patients with early RA [1]; HLA-DRB1 SE 2 copies): 36/69 | ACR50 response rate, % subjects (patients with early RA [1]; HLA-DRB1 SE 2 copies): (29%) | ACR50 response, n/N subjects (patients with early RA [1]; HLA-DRB1 SE 2 copies): 20/69 | ACR70 response rate, % subjects (patients with early RA [1]; HLA-DRB1 SE 2 copies): (13%) | ACR70 response, n/N subjects (patients with early RA [1]; HLA-DRB1 SE 2 copies): 9/69 | ACR50 response rate, % subjects (patients with early RA [1]; HLA-DRB1 SE 2 copies, listed as MTX): 29% | ACR50 response rate, % subjects (patients with early RA [1]; IL-4R AA): (35%) | ACR50 response, n/N subjects (patients with early RA [1]; IL-4R AA): 45/130 | ACR70 response rate, % subjects (patients with early RA [1]; IL-4R AA): (13%) | ACR70 response, n/N subjects (patients with early RA [1]; IL-4R AA): 17/130 | ACR50 response rate, % subjects (patients with early RA [1]; IL-4R AG): (34%) | ACR50 response, n/N subjects (patients with early RA [1]; IL-4R AG): 79/233 | ACR70 response rate, % subjects (patients with early RA [1]; IL-4R AG): (19%) | ACR70 response, n/N subjects (patients with early RA [1]; IL-4R AG): 42/233 | ACR50 response rate, % subjects (patients with early RA [1]; IL-4R GG): (38%) | ACR50 response, n/N subjects (patients with early RA [1]; IL-4R GG): 33/88 | ACR70 response rate, % subjects (patients with early RA [1]; IL-4R GG): (18%) | ACR70 response, n/N subjects (patients with early RA [1]; IL-4R GG): 16/88 | LDA DAS28 <3.2, % subjects (patients with early RA [2]; HLA-DRB1 SE 0 copies): (30%) | LDA DAS28 <3.2, n/N subjects (patients with early RA [2]; HLA-DRB1 SE 0 copies): 49/167 | Remission DAS28 <2.6, % subjects (patients with early RA [2]; HLA-DRB1 SE 0 copies): (17%) | Remission DAS28 <2.6, n/N subjects (patients with early RA [2]; HLA-DRB1 SE 0 copies): 28/167 | LDA DAS28 <3.2, % subjects (patients with early RA [2]; HLA-DRB1 SE 1 copy): (23%) | LDA DAS28 <3.2, n/N subjects (patients with early RA [2]; HLA-DRB1 SE 1 copy): 50/215 | Remission DAS28 <2.6, % subjects (patients with early RA [2]; HLA-DRB1 SE 1 copy): (16%) | Remission DAS28 <2.6, n/N subjects (patients with early RA [2]; HLA-DRB1 SE 1 copy): 35/215 | LDA DAS28 <3.2, % subjects (patients with early RA [2]; HLA-DRB1 SE 2 copies): (24%) | LDA DAS28 <3.2, n/N subjects (patients with early RA [2]; HLA-DRB1 SE 2 copies): 16/69 | Remission DAS28 <2.6, % subjects (patients with early RA [2]; HLA-DRB1 SE 2 copies): (16%) | Remission DAS28 <2.6, n/N subjects (patients with early RA [2]; HLA-DRB1 SE 2 copies): 11/69 | LDA DAS28 <3.2, % subjects (patients with early RA [2]; IL-4R AA): (24%) | LDA DAS28 <3.2, n/N subjects (patients with early RA [2]; IL-4R AA): 31/130 | Remission DAS28 <2.6, % subjects (patients with early RA [2]; IL-4R AA): (14%) | Remission DAS28 <2.6, n/N subjects (patients with early RA [2]; IL-4R AA): 18/130 | LDA DAS28 <3.2, % subjects (patients with early RA [2]; IL-4R AG): (25%) | LDA DAS28 <3.2, n/N subjects (patients with early RA [2]; IL-4R AG): 58/233 | Remission DAS28 <2.6, % subjects (patients with early RA [2]; IL-4R AG): (16%) | Remission DAS28 <2.6, n/N subjects (patients with early RA [2]; IL-4R AG): 37/233 | LDA DAS28 <3.2, % subjects (patients with early RA [2]; IL-4R GG): (30%) | LDA DAS28 <3.2, n/N subjects (patients with early RA [2]; IL-4R GG): 26/88 | Remission DAS28 <2.6, % subjects (patients with early RA [2]; IL-4R GG): (22%) | Remission DAS28 <2.6, n/N subjects (patients with early RA [2]; IL-4R GG): 19/88
